# Data from US4439426A, “Semisynthetic macrolidic antibiotics, intermediate compounds for their preparation and related pharmaceutical compositions containing them” (priority 1981, dated 1984).
# Columns and labels:
# Assay type in all cases: cell-based
# [1] = tested on: Staphylococcus aureus ATCC 6538 P LRP 39; assay: Minimum bactericidal concentration (MBC)
# From the text: (§1) the bacterial power, expressed as the minimum bactericidal power (MBC) against some Gram positive aerobic stocks (table 5).
# [2] = tested on: Streptococcus pyogenes ATCC 8668 LRP 34; assay: Minimum bactericidal concentration (MBC)
# From the text: as §1
# [3] = tested on: Corynebacterium diphteriae LRP 24; assay: Minimum bactericidal concentration (MBC)
# From the text: as §1
# [4] = tested on: Streptococcus pneumoniae ATCC 6303 LRP 35; assay: Minimum bactericidal concentration (MBC)
# From the text: as §1
# [5] = tested on: Streptococcus faecalis subs. zymogenes LRP 61; assay: Minimum bactericidal concentration (MBC)
# From the text: as §1
# [6] = tested on: Clostridium perfrigens ATCC 3624 LRP 206; assay: microbe, parasite or virus in culture; conditions: ATCC3624, solid medium, anaerobic, read-out: Minimum inhibiting concentration
# From the text: (§2) the bacteriostatic power, expressed as the minimum inhibiting concentration (MIC) against both aerobic and anaerobic, Gram positive and Gram negative, bacterial stocks: the related results are reported in the tables 2 and 3.
# Salmonella typhy LRP 8 = assay: microbe, parasite or virus in culture; conditions: LRP8, solid medium, read-out: Minimum inhibiting concentration
# From the text: as §2
# [7] = tested on: Staphylococcus aureus ATCC 6538 P LRP 39; assay: Bacteriostatic power in liquid medium (MIC); conditions: liquid medium
# From the text: as §2
# [8] = tested on: Streptococcus faecalis subs. zymogenes ATCC 12958 LRP 61; assay: Bacteriostatic power in liquid medium (MIC); conditions: liquid medium
# From the text: as §2
# [9] = tested on: Streptococcus pyogenes ATCC 8668 LRP 34; assay: Bacteriostatic power in liquid medium (MIC); conditions: liquid medium
# From the text: as §2
# [10] = tested on: Corynebacterium diphteriae LRP 24; assay: Bacteriostatic power in liquid medium (MIC); conditions: liquid medium
# From the text: as §2
# [11] = tested on: Streptococcus pneumoniae ATCC 6303 LRP 35; assay: Bacteriostatic power in liquid medium (MIC); conditions: liquid medium
# From the text: as §2
# [12] = tested on: Neisseria gonorrhoeae ATCC 19424 LRP 214; assay: Bacteriostatic power in solid medium (MIC); conditions: solid medium
# From the text: as §2
# Shigella sonnei LRP 5 = assay: Bacteriostatic power in solid medium (MIC); conditions: LRP5, read-out: Minimum inhibiting concentration
# From the text: as §2
# [13] = tested on: Micrococcus luteus ATCC 9341 LRP 6; assay: Bacteriostatic power in solid medium (MIC); conditions: solid medium
# From the text: as §2
# [14] = tested on: Micrococcus luteus ATCC 15957 LRP 193; assay: Bacteriostatic power in solid medium (MIC); conditions: solid medium, Erythromycin resistant
# From the text: as §2
# [15] = tested on: Staphylococcus aureus ATCC 6538P LRP 39; assay: Bacteriostatic power in solid medium (MIC); conditions: solid medium
# From the text: as §2
# [16] = tested on: Staphylococcus aureus ATCC 14154 LRP 78; assay: Bacteriostatic power in solid medium (MIC)
# From the text: as §2
# [17] = tested on: Proteus vulgaris ATCC 6380 LRP 13; assay: Bacteriostatic power in solid medium (MIC); conditions: solid medium
# From the text: as §2
# [18] = tested on: Streptococcus pyogenes ATCC 8668 LRP 197; assay: Bacteriostatic power in solid medium (MIC); conditions: solid medium
# From the text: as §2
# [19] = tested on: Streptococcus faecalis subsp. zymogenes ATCC 12958 LRP 61; assay: Bacteriostatic power in solid medium (MIC); conditions: solid medium
# From the text: as §2
# Escherichia coli LRP 50 = assay: Bacteriostatic power in solid medium (MIC); conditions: solid medium
# From the text: as §2
# [20] = tested on: Bacteroides fragilis ATCC 23745 LRP 205; assay: Bacteriostatic power in solid medium (MIC); conditions: solid medium, anaerobic
# From the text: as §2
# [21] = tested on: Mycoplasma hominis I ATCC 14027 LRP 211; assay: Bacteriostatic power in solid medium (MIC); conditions: solid medium
# From the text: as §2
# Bacillus subtilis LRP 25 = assay: Bacteriostatic power in solid medium (MIC); conditions: solid medium
# From the text: as §2
# [22] = tested on: Acholeplasma laidlawii ATCC 23206 LRP 204; assay: Bacteriostatic power in solid medium (MIC); conditions: solid medium
# From the text: as §2
# [23] = tested on: Fusobacteriumnecrophroum ATCC 27852 LRP 210; assay: Bacteriostatic power in solid medium (MIC); conditions: solid medium, anaerobic
# From the text: as §2
# [24] = tested on: Staphylococcus aureus ATCC 6538P LRP 14; assay: Bacteriostatic power in solid medium (MIC); conditions: solid medium, Penycilline resistant
# From the text: as §2
# [25] = tested on: Streptococcus pneumoniae ATCC 6303 LRP 52; assay: Bacteriostatic power in solid medium (MIC); conditions: solid medium
# From the text: as §2
# [26] = tested on: Streptococcus faecalis LRP 7; assay: Bacteriostatic power in solid medium (MIC); conditions: solid medium
# From the text: as §2
# [27] = tested on: Klelsiella pneumoniae LRP 54; assay: Bacteriostatic power in solid medium (MIC); conditions: solid medium
# From the text: as §2
# [28] = tested on: Haemophilus influenzae ATCC 19418 LRP 213; assay: Bacteriostatic power in solid medium (MIC)
# From the text: as §2
# [29] = tested on: Streptococcus pneumoniae ATCC 6303 LRP 53; assay: Bacteriostatic power in solid medium (MIC); conditions: solid medium
# From the text: as §2
# [30] = tested on: Pseudomonas aeruginosa LRP 9; assay: Bacteriostatic power in solid medium (MIC); conditions: solid medium
# From the text: as §2
# [31] = tested on: Streptococcus pyogenes ATCC 8668 LRP 34; assay: Bacteriostatic power in solid medium (MIC); conditions: solid medium
# From the text: as §2
# [32] = tested on: Corynebacterium diphteriae LRP 24; assay: Bacteriostatic power in solid medium (MIC); conditions: solid medium
# From the text: as §2
# [33] = tested on: Streptococcus pneumoniae ATCC 6303 LRP 35; assay: Bacteriostatic power in solid medium (MIC); conditions: solid medium
# From the text: as §2
# [34] = Enterococcus faecalis, ATCC12958, read-out: Minimum inhibiting concentration
# [35] = Streptococcus pyogenes, ATCC8668, read-out: Minimum inhibiting concentration
# [36] = Corynebacterium, LRP24, read-out: Minimum inhibiting concentration
# [37] = Streptococcus pneumoniae, ATCC6303, read-out: Minimum inhibiting concentration
# [38] = Staphylococcus aureus, ATCC6538P, read-out: Minimum inhibiting concentration
# [39] = read-out: Minimum inhibiting concentration
molecule,measurement,setting,value
"CO[C@H]1C[C@H](O[C@H]2[C@H](C)[C@@H](O[C@@H]3O[C@H](C)C[C@H](N(C)C)[C@H]3O)[C@@H](C)C[C@@]3(CO3)C(=O)[C@H](C)[C@@H](O)[C@@H](C)[C@@H](C)OC(=O)[C@@H]2C)O[C@@H](C)[C@@H]1O [Oleandomycin, reference compound]",MBC/MIC,[1],16
same,MBC,"[1]; Staphylococcus aureus, ATCC6538, read-out: Minimum bactericidal concentration (MBC)",6.25 µg/mL
same,MBC/MIC,[2],16
same,MBC,"[2]; Streptococcus pyogenes, ATCC8668, read-out: Minimum bactericidal concentration (MBC)",3.12 µg/mL
same,MBC/MIC,[3],4
same,MBC,"[3]; Corynebacterium, LRP24, read-out: Minimum bactericidal concentration (MBC)",0.39 µg/mL
same,MBC/MIC,[4],4
same,MBC,"[4]; Streptococcus pneumoniae, ATCC6303, read-out: Minimum bactericidal concentration (MBC)",0.78 µg/mL
same,MBC/MIC,[5],> 8
same,MBC,"[5]; Enterococcus faecalis, read-out: Minimum bactericidal concentration (MBC)",> 12.5 µg/mL
same,MIC,[6],3.12 µg/mL
same,MIC,Salmonella typhy LRP 8,25 µg/mL
same,MIC,"[7]; Staphylococcus aureus, ATCC6538, read-out: Minimum inhibiting concentration",0.39 µg/mL
same,MIC,[8]; [34],1.56 µg/mL
same,MIC,[9]; [35],0.195 µg/mL
same,MIC,[10]; [36],0.097 µg/mL
same,MIC,[11]; [37],0.195 µg/mL
same,MIC,"[12]; Neisseria gonorrhoeae, ATCC19424, read-out: Minimum inhibiting concentration",0.39 µg/mL
same,MIC,Shigella sonnei LRP 5,25 µg/mL
same,MIC,"[13]; Micrococcus luteus, ATCC9341, read-out: Minimum inhibiting concentration",0.049 µg/mL
same,MIC,"[14]; Micrococcus luteus, ATCC15957, read-out: Minimum inhibiting concentration",25 µg/mL
same,MIC,[15]; [38],0.39 µg/mL
same,MIC,"[16]; Staphylococcus aureus, ATCC14154, read-out: Minimum inhibiting concentration",25 µg/mL
same,MIC,"[17]; Proteus vulgaris, ATCC6380, read-out: Minimum inhibiting concentration",25 µg/mL
same,MIC,[18]; [35],0.195 µg/mL
same,MIC,[19]; [34],1.56 µg/mL
same,MIC,"Escherichia coli LRP 50; Escherichia coli, LRP50, read-out: Minimum inhibiting concentration",25 µg/mL
same,MIC,"[20]; Bacteroides fragilis, ATCC23745, read-out: Minimum inhibiting concentration",0.39 µg/mL
same,MIC,"[21]; Metamycoplasma hominis, ATCC14027, read-out: Minimum inhibiting concentration",25 µg/mL
same,MIC,"Bacillus subtilis LRP 25; Bacillus subtilis, LRP25, read-out: Minimum inhibiting concentration",0.39 µg/mL
same,MIC,"[22]; Acholeplasma laidlawii, ATCC23206, read-out: Minimum inhibiting concentration",6.25 µg/mL
same,MIC,[23]; [39],6.25 µg/mL
same,MIC,[24]; [38],0.39 µg/mL
same,MIC,[25]; [37],0.195 µg/mL
same,MIC,"[26]; Enterococcus faecalis, LRP7, read-out: Minimum inhibiting concentration",1.56 µg/mL
same,MIC,[27]; [39],25 µg/mL
same,MIC,"[28]; Haemophilus influenzae, ATCC19418, read-out: Minimum inhibiting concentration",25 µg/mL
same,MIC,[29]; [37],0.195 µg/mL
same,MIC,"[30]; Pseudomonas aeruginosa, LRP9, read-out: Minimum inhibiting concentration",25 µg/mL
same,MIC,[31]; [35],0.195 µg/mL
same,MIC,[32]; [36],0.097 µg/mL
same,MIC,[33]; [37],0.195 µg/mL
(8S)-8-fluoroerythromycin A carbonate [P80206 carbonate],Minimum inhibiting concentration,[7],0.39 µg/mL
same,Minimum inhibiting concentration,[8],0.195 µg/mL
same,Minimum inhibiting concentration,[9],0.024 µg/mL
same,Minimum inhibiting concentration,[10],0.024 µg/mL
same,Minimum inhibiting concentration,[11],0.049 µg/mL
same,Minimum inhibiting concentration,[12],0.049 µg/mL
same,Minimum inhibiting concentration,[13],0.024 µg/mL
same,Minimum inhibiting concentration,[14],25 µg/mL
same,Minimum inhibiting concentration,[15],0.097 µg/mL
same,Minimum inhibiting concentration,"[16]; solid medium, Erythromycin resistant",25 µg/mL
same,Minimum inhibiting concentration,[17],25 µg/mL
same,Minimum inhibiting concentration,[18],0.024 µg/mL
same,Minimum inhibiting concentration,[19],0.097 µg/mL
same,Minimum inhibiting concentration,Escherichia coli LRP 50,3.12 µg/mL
same,Minimum inhibiting concentration,[20],0.78 µg/mL
same,Minimum inhibiting concentration,[21],25 µg/mL
same,Minimum inhibiting concentration,Bacillus subtilis LRP 25,0.049 µg/mL
same,Minimum inhibiting concentration,[22],0.195 µg/mL
same,Minimum inhibiting concentration,[23],6.25 µg/mL
same,Minimum inhibiting concentration,[24],0.097 µg/mL
same,Minimum inhibiting concentration,[25],0.012 µg/mL
same,Minimum inhibiting concentration,[26],0.097 µg/mL
same,Minimum inhibiting concentration,[27],12.5 µg/mL
same,Minimum inhibiting concentration,[28]; solid medium,6.25 µg/mL
same,Minimum inhibiting concentration,[29],0.012 µg/mL
same,Minimum inhibiting concentration,[30],25 µg/mL
same,Minimum inhibiting concentration,[31],0.012 µg/mL
same,Minimum inhibiting concentration,[32],0.024 µg/mL
same,Minimum inhibiting concentration,[33],0.012 µg/mL
